Results taken from PMC8027256, “Epigallocathechin-O-3-Gallate Inhibits Trypanothione Reductase of Leishmania infantum, Causing Alterations in Redox Balance and Leading to Parasite Death” (Frontiers in Cellular and Infection Microbiology, 2021).

Target: T1, trypanothione reductase (TR; LiTR) (Leishmania infantum, UniProt A4HSF7)
T1 construct: gene TRYR; Full-length LiTR with carboxy-terminal six-histidine tag (LiTR.6His), expressed in E. coli
Test: DTNB-coupled trypanothione reductase assay with purified recombinant enzyme; Lineweaver-Burk and Dixon plot analysis (IC50 […] also reported)
Format: biochemical

T1 sequence (A4HSF7 1-491): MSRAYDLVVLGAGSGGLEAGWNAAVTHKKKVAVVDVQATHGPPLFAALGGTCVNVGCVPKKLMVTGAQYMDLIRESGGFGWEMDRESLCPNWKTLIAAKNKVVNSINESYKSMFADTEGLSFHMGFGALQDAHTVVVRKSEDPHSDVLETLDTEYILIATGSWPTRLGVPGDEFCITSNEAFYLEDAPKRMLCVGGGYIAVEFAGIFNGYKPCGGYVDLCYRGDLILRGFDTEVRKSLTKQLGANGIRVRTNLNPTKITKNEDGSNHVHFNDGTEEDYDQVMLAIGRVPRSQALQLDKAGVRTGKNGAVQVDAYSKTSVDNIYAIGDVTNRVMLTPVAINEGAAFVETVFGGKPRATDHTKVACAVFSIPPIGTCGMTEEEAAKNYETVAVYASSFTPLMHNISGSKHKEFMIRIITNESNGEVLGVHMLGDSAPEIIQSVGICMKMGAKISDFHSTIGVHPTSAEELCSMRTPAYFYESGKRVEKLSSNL

O=C(O[C@@H]1Cc2c(O)cc(O)cc2O[C@@H]1c1cc(O)c(O)c(O)c1)c1cc(O)c(O)c(O)c1 [(-)-Epigallocatechin 3-O-gallate]
Ki: 294 ± 66.3 µM
